Earlier results in patent US10674699B2, “Endophyte enhanced seedlings with increased pest tolerance” (priority 2006, dated 2020).

System: spruce budworm cells
Conditions: Can J Chem 81: 284; cited from earlier work

trihydroxy-4-1′-hydroxyethyl) isocoumarin
toxicity to spruce budworm cells: ^camong others; a new compound trihydroxy-4-1′-hydroxyethyl) isocoumarin also toxic to spruce budworm cells (Can J Chem 81: 284)
